According to paper PMC11326893, “A comprehensive measure of Golgi sphingolipid flux using NBD C6-ceramide: evaluation of sphingolipid inhibitors” (Journal of Lipid Research, 2024):
pIC50: −log10 of the molar value. Values belong to the molecule of their own block, whether it stands above or below them.

Assays:
ceramide kinase (CERK) [1] = molecular target: T1, ceramide kinase (CERK) (Homo sapiens, UniProt Q8TCT0); test: in vitro activity assay with purified recombinant CERK, NBD-C6-Cer substrate; only about […] decrease at […]; type: biochemical; design: full-length human CERK; conditions: read-out: % decrease in activity at 50 μM and 100 μM
T1 sequence (Q8TCT0 1-537): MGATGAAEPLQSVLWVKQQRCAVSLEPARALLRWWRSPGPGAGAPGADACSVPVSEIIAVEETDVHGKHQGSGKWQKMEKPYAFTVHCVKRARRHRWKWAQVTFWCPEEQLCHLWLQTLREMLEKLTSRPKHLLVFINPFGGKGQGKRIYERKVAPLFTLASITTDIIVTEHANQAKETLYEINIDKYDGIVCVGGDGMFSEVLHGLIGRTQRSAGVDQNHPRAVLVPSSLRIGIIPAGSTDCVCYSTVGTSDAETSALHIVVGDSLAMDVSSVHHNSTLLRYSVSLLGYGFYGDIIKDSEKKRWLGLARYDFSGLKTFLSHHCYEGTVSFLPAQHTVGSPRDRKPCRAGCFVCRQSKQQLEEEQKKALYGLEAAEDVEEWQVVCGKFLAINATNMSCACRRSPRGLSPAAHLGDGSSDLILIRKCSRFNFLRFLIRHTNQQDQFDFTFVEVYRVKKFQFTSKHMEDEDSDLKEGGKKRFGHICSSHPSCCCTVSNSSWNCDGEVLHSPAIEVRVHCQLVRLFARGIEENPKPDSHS

ceramide kinase (CERK) [2] = molecular target: T1, ceramide kinase (CERK); test: NBD-C6-ceramide to NBD-C1P conversion (HPLC, fluorescence) in MCF7 cells overexpressing CERK; type: cell-based
[3] = molecular target: T2, glucosylceramide synthase (GCS) (Homo sapiens, UniProt Q16739); test: NBD-C6-ceramide to NBD-HexCer conversion in MCF7 cells, […] eliglustat; type: cell-based
T2 construct: gene UGCG
T2 sequence (Q16739 1-394): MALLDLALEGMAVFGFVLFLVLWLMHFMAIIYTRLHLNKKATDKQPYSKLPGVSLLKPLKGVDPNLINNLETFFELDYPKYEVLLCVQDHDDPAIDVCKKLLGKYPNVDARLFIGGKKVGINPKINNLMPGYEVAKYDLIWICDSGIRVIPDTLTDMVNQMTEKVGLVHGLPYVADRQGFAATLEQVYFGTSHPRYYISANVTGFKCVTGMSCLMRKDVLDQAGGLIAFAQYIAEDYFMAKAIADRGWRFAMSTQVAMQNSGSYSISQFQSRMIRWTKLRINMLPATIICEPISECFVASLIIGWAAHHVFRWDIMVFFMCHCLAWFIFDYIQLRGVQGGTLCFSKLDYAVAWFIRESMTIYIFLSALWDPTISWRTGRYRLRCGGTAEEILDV

inhibition at 50 µM (ceramide kinase (CERK) [1]): 20%
SMILES: CCCCCCCCCC(=O)NC(CN1CCOCC1)C(O)c1ccccc1 (stereo not drawn) [PDMP, 1-phenyl-2-decanoylamino-3-morpholino-1-propanol]

pIC50 (ceramide kinase (CERK) [2]): > 8.00
SMILES: O=C(Nc1nc2ccc(NC(=O)C34CC5CC(CC(C5)C3)C4)cc2s1)c1ccccc1 [NVP-231]

SMILES: CCCCCCCC(=O)N[C@H](CN1CCCC1)[C@H](O)c1ccc2c(c1)OCCO2 [eliglustat]
NBD-C6-ceramide to NBD-HexCer conversion in MCF7 cells, 50 nM eliglustat [3]: Inhibition with eliglustat and PDMP both nearly eliminated the production of NBD-C6-HexCer
